In ChEMBL document CHEMBL5653633, “G1 cell cycle arrest and apoptosis are induced in NIH 3T3 cells by KN-93, an inhibitor of CaMK-II (the multifunctional Ca2+/CaM kinase)” (Cell Growth Differ, 1995) one finds Activity, inhibition and IC50 data, which are given here for 2 molecules.

Data set [1] deals with NIH3T3. Briefly: Induction of cell cycle arrest in mouse NIH3T3 cells by propidium iodide staining based flow cytometry analysis. Format: toxicity.
Data set [2] relates to NIH3T3. Briefly: Inhibition of CAMK-II in mouse NIH3T3 cells assessed as decrease in cell number by MTT assay. Format: cell-based. (Formazan colour is commonly taken as a measure of viable cells.)
Data set [3] deals with NIH3T3. Description: (§1) Inhibition of CAMK-II in mouse NIH3T3 cells using autocamtide-2 as substrate […]. The format is cell-based.
Data set [4] deals with NIH3T3. Description: Induction of apoptosis in mouse NIH3T3 cells assessed as decreased cell viability in presence of terminal transferase and Fl-dUTP by TUNEL staining based fluorescence microscopy analysis. The format is toxicity. The following applies: dose lower 10 µM, time lower 2 day, dose upper 24 µM, time upper 3 day.
Data set [5] can be described thus: Inhibition of CAMK-II in mouse NIH3T3 cells assessed as growth inhibition incubated for 2 to 3 days by phase contrast microscopy analysis. The format is cell-based.
The subject of data set [6] is NIH3T3. Description: Inhibition of CAMK-II in mouse NIH3T3 cells assessed as morphological changes at 10 to 24 uM incubated for 1 day in presence of fetal bovine serum by phase contrast microscopy analysis. The format is cell-based. The settings on record: dose 10-24 µM.
Data set [7] concerns NIH3T3. Description: Inhibition of CAMK-II in mouse NIH3T3 cells assessed as accumulation of granules in presence of fetal bovine serum by phase contrast microscopy analysis. Format: cell-based.
Data set [8] concerns NIH3T3. Briefly: Inhibition of CAMK-II in mouse NIH3T3 cells assessed as decrease in cell count at 24 uM incubated for 2 to 3 days in presence of fetal bovine serum by phase contrast microscopy analysis. Format: cell-based. The settings on record: time 2-3 day.
The test system of data set [9] is NIH3T3. Briefly: Inhibition of CAMK-II in mouse NIH3T3 cells assessed as inhibition of cell growth at 4 to 8 uM incubated for 3 days by MTT assay. The format is cell-based. The following applies: dose 4-8 µM, time 3.0 day.
In data set [10] the test system is NIH3T3. Description: Inhibition of CAMK-II in mouse NIH3T3 cells assessed as decrease in cell number at 16 to 24 uM incubated for 3 days by MTT assay. The format is cell-based. The following applies: dose 16-24 µM, time 3.0 day.
Data set [11] concerns NIH3T3. Briefly: Inhibition of CAMK-II in mouse NIH3T3 cells assessed as cell growth rate after compound rinsing at 4 to 16 uM incubated for 6 to 48 hrs by MTT assay. The settings on record: dose 4-16 µM, time 6-48 hrs. The format is cell-based.
A short description of data set [12]: as §1. The format is cell-based.
Data set [13] concerns NIH3T3. Briefly: Induction of cell cycle arrest in mouse NIH3T3 cells assessed as accumulation of cells at G1 phase at 10 uM incubated for 1 day by propidium iodide staining based flow cytometry analysis (reference value: 54 %). The format is toxicity. The following applies: nih3t3, 24 h.
The test system of data set [14] is NIH3T3. Briefly: Induction of cell cycle arrest in mouse NIH3T3 cells assessed as accumulation of cells at G1 phase at 10 uM incubated for 2 to 3 day by propidium iodide staining based flow cytometry analysis (reference value: 54 %). The format is toxicity. The settings on record: nih3t3, 10 µM, time 2-3 day. Background: In flow cytometry, cells or beads pass a laser one at a time.

The subject of data set [15] is NIH3T3. Briefly: Induction of cell cycle arrest in mouse NIH3T3 cells assessed as decreased accumulation of cells at S phase at 10 uM incubated for 1 to 3 days by propidium iodide staining based flow cytometry analysis. Format: toxicity. The following applies: nih3t3, 10 µM, time 1-3 day.
Data set [16] deals with NIH3T3. Briefly: Induction of cell cycle arrest in mouse NIH3T3 cells assessed as accumulation of cells at S phase at 10 uM incubated for 44 hrs followed by compound washout for 22 hrs by propidium iodide staining based flow cytometry analysis. The format is toxicity. The following applies: nih3t3, 44 h.
For data set [17], the system named is NIH3T3. Briefly: Induction of cell cycle arrest in mouse NIH3T3 cells assessed as decreased accumulation of cells at G2 phase at 10 uM incubated for 1 to 3 days by propidium iodide staining based flow cytometry analysis. The following applies: nih3t3, 10 µM, time 1-3 day. The format is toxicity.
Data set [18] deals with NIH3T3. Description: Induction of cell cycle arrest in mouse NIH3T3 cells assessed as accumulation of cells at G2/M phase at 10 uM incubated for 44 hrs followed by compound washout for 22 hrs by propidium iodide staining based flow cytometry analysis. The format is toxicity. The following applies: nih3t3, 44 h.
The subject of data set [19] is NIH3T3. Briefly: Induction of cell cycle arrest in mouse NIH3T3 cells assessed as accumulation of cells at G1 phase at 24 uM incubated for 3 days by propidium iodide staining based flow cytometry analysis. Format: toxicity. The following applies: nih3t3, 72 h, time 3 day.
Data set [20] has as its system NIH3T3. Briefly: Induction of cell cycle arrest in mouse NIH3T3 cells assessed as accumulation of hypodiploid cells at 24 uM incubated for 3 days by propidium iodide staining based flow cytometry analysis. The format is toxicity. The settings on record: nih3t3, 72 h, time 3 day.
Data set [21] concerns NIH3T3. Briefly: Cytotoxicity against PDGF-BB stimulated mouse NIH3T3 cells assessed as growth inhibition at 5 to 25 uM incubated for 72 hrs by MTT assay. Format: functional, cell-based. The following applies: dose 5-25 µM.
Data set [22] deals with NIH3T3. Briefly: Cytotoxicity against FGF stimulated mouse NIH3T3 cells assessed as growth inhibition at 5 to 25 uM incubated for 72 hrs by MTT assay. The settings on record: dose 5-25 µM. The format is functional, cell-based.
Data set [23] deals with NIH3T3. Briefly: Cytotoxicity against EGF stimulated mouse NIH3T3 cells assessed as growth inhibition at 5 to 25 uM incubated for 72 hrs by MTT assay. Format: functional, cell-based. The following applies: dose 5-25 µM.
The subject of data set [24] is NIH3T3. Briefly: Cytotoxicity against IGF-1 stimulated mouse NIH3T3 cells assessed as growth inhibition at 5 to 25 uM incubated for 72 hrs by MTT assay. The format is functional, cell-based. The following applies: dose 5-25 µM.
Data set [25] concerns NIH3T3. Briefly: Cytotoxicity against FGF stimulated mouse NIH3T3 cells assessed as decrease in cell number at 2 uM incubated for 72 hrs by MTT assay relative to control. The format is functional. Also on record: scale not given: the % may be the effect or the level left.
Data set [26] relates to NIH3T3. Description: Cytotoxicity against serum stimulated mouse NIH3T3 cells assessed as decrease in cell number at 2 uM incubated for 72 hrs by MTT assay relative to control. Format: functional. Also on record: scale not given: the % may be the effect or the level left.
For data set [27], the system named is NIH3T3. Description: Cytotoxicity against serum stimulated mouse NIH3T3 cells assessed as inhibition of cell growth incubated for 72 hrs by MTT assay. Format: functional, cell-based. The following applies: NIH3T3, 72 h.
Data set [28] deals with NIH3T3. Description: Cytotoxicity against PDGF-BB stimulated mouse NIH3T3 cells assessed as growth inhibition incubated for 72 hrs by MTT assay. The format is functional, cell-based. The settings on record: NIH3T3, 72 h.
Data set [29] has as its system NIH3T3. Briefly: Cytotoxicity against FGF stimulated mouse NIH3T3 cells assessed as growth inhibition incubated for 72 hrs by MTT assay. Format: functional, cell-based. The following applies: NIH3T3, 72 h.
The subject of data set [30] is NIH3T3. Description: Cytotoxicity against EGF stimulated mouse NIH3T3 cells assessed as growth inhibition incubated for 72 hrs by MTT assay. Format: functional, cell-based. The following applies: NIH3T3, 72 h.
The subject of data set [31] is NIH3T3. Description: Cytotoxicity against IGF-1 stimulated mouse NIH3T3 cells assessed as growth inhibition incubated for 72 hrs by MTT assay. The format is functional, cell-based. The following applies: NIH3T3, 72 h.

Calls of active or inactive are those of the source. The rule behind the calls is not given here.

As to `COc1ccc(S(=O)(=O)Nc2ccccc2CN(C)C/C=C/c2ccc(Cl)cc2)cc1`, the Activity entry in the data set with NIH3T3 [1] is recorded as “Not Active”. For the same molecule, the inhibition entry in the data set with NIH3T3 [2] and with NIH3T3 [3] was “inactive” in each case.

The term IC50 denotes the concentration needed to halve the response being measured. For `COc1ccc(S(=O)(=O)N(CCO)c2ccccc2CN(C)C/C=C/c2ccc(Cl)cc2)cc1`, the Activity entry was “Dose-Dependent Effect and Tde” in the data set on NIH3T3 [4]; 79% in the data set on NIH3T3 [13]; 95% in the data set with NIH3T3 [14]; “Toxic” in the data set on NIH3T3 [15]; “Non-Toxic” in the data set on NIH3T3 [16]; “Toxic” in the data set on NIH3T3 [17]. For the same molecule, the Activity entry was “Non-Toxic” in the data set on NIH3T3 [18]; “Toxic” in the data set on NIH3T3 [19]; “Toxic” in the data set on NIH3T3 [20]; 35% in the data set with NIH3T3 [25]; 4% in the data set on NIH3T3 [26]. In addition, the IC50 in data set [5] was found to be 1 µM; in data set [12] it was 12 µM; with NIH3T3 [27], 12 µM; in the data set with NIH3T3 [28], 6 µM; in the data set on NIH3T3 [29], 6 µM; in the data set on NIH3T3 [30], 6 µM. For the same molecule, the IC50 in the data set on NIH3T3 [31] came to 6 µM. Besides, the inhibition result in the data set with NIH3T3 [6], in the data set with NIH3T3 [7], with NIH3T3 [8], with NIH3T3 [9], in the data set on NIH3T3 [10] and in the data set on NIH3T3 [2] was “Active” throughout. Besides, in the data set with NIH3T3 [11], the inhibition entry is “inactive”. For the same molecule, the result in the data set on NIH3T3 [21], in the data set with NIH3T3 [22], in the data set on NIH3T3 [23] and with NIH3T3 [24] was Active.
